Source: patent EP0937734B1, “11-Acetyl-12,13-dioxabicyclo ¬8.2.1 tridecenone derivatives, process for making them and pharmaceutical compositions containing them” (Abbott Products GmbH, priority 1998, dated 1999)

Key:
Motilin-Rezeptoren = target: T1, Motilin-Rezeptoren (Oryctolagus cuniculus, UniProt G1T803); experiment: Binding of test substances to motilin receptors (displacement of 125I-labelled motilin, crude membrane preparation from rabbit antrum); design: species or system Kaninchen; details: displacement of iodinated motilin (50 pM), rabbit antrum membrane fraction, 60 min at 30 °C; calculated from IC50
T1 construct: Die so erhaltene Gewebefraktion, welche als "rohe Membranzubereitung" bezeichnet wird, wird für den Test eingesetzt; from tissue; host or cells: rabbit antrum freed of mucosa, crude membrane fraction
Description: 1. Bestimmung des Bindungsvermögens der Testsubstanzen an Motilin-Rezeptoren.
Die Affinität der Verbindungen der Formel I an Motilin-Rezeptoren wird in vitro an einer Fraktion eines Gewebehomogenats aus dem Kaninchenantrum gemessen. Bestimmt wird die Verdrängung von radioaktiv markiertem jodiertem Motilin aus der Motilin-Rezeptor-Bindung durch die Testsubstanzen.
Die Rezeptor-Bindungsstudien werden nach einer Modifikation der Methode von Borman et al. (Regulatory Peptides 15 (1986), 143-153) durchgeführt. Zur Herstellung des ^125Jodmarkierten Motilins wird Motilin auf an sich bekannte Weise, z. B. analog der von Bloom et al. (Scand. J. Gastroenterol. 11 (1976) 47 - 52) beschriebenen Methode enzymatisch unter Verwendung von Lactoperoxidase jodiert.
Zur Gewinnung der in dem Test verwendeten Gewebehomogenatfraktion aus dem Kaninchenantrum wird das von Schleimhäuten befreite Antrum zerkleinert und im 10-fachen Volumen einer kalten Homogenisierungspufferlösung (50 mM Tris-HCl-Puffer, 250 mM Sucrose, 25 mM KCl, 10 mM MgCl2, pH 7,4) mit Zusatz von Inhibitoren (1 mM Jodacetamid, 1 µM Pepstatin, 0,1 mM Methylsulfonylfluorid, 0,1 g/l Trypsininhibitor, 0,25 g/l Bacitracin) mit einem Homogenisator 15 sec. bei 1500 Umdrehungen pro Minute homogenisiert. […]

[1] = In vivo determination of the influence on gastric tone (barostat, gastric volume at constant pressure after lipid-induced relaxation); design: species or system Beagle-Hunden
Description: 2. In-vivo-Bestimmung des Einflusses der Substanzen auf den Magentonus
Der Magentonus spielt eine wichtige Rolle bei der Magenentleerung. Ein erhöhter Magentonus trägt zu einer beschleunigten Magenentleerung bei.
Der Einfluß von Substanzen auf den Magentonus wird an Beagle-Hunden mit Hilfe eines Barostaten bestimmt, welcher mit einem Kunststoffbeutel im Magen des Hundes verbunden ist und die Messung von Volumen oder Druck im Magen des Hundes ermöglicht. Mit dem Barostaten wird das Magenvolumen bei konstantem Druck im Magen oder der Magendruck bei konstantem Volumen im Magen bestimmt. Bei Erhöhung des Magentonus stellt man bei einem bestimmten Druck ein verringertes Magenvolumen fest und einen erhöhten Druck bei einem bestimmten Volumen. In dem zur Untersuchung der durch die Substanzen bewirkten Erhöhung des Magentonus verwendeten Testmodell wird die durch die Substanzen verursachte Magenvolumenänderung bei konstantem Druck gemessen. Der Magen der Versuchstiere wird durch Lipideinnahme relaxiert, d. h. der Magentonus sinkt, wodurch das Magenvolumen entsprechend zunimmt. Als Maß für die den Magentonus erhöhende Wirkung der Substanzen wird die nach Substanzeinnahme durch Wiederanstieg des Magentonus eintretende Reduktion des durch Lipidgabe vergrößerten Magenvolumens in % gemessen. […]

[2] = In vivo determination of the influence on the resting tone of the lower oesophageal sphincter (pull-through manometry); design: species or system Beagle-Hunden
Description: 3. In-vivo-Bestimmung des Einflusses der Substanzen auf den Ruhe-Tonus des unteren Oesophagus Sphincter.
Diese Bestimmung wird an männlichen, wachen, nüchternen Beagle-Hunden vorgenommen, denen vor Versuchsbeginn je eine Oesophagus-Fistel und eine Duodenal-Kanüle gelegt worden sind. Der Druck des unteren Oesophagus Sphincter wird mittels eines perfundierten Kathetersystems mit seitlicher Öffnung, das mit einem Druckaufnehmer und einem Recorder verbunden ist, gemessen. Der Katheter wird über die Oesophagus-Fistel in den Magen geführt und dann langsam manuell zurückgezogen (= Durchzugsmanometrie). Beim Passieren des Katheterteils mit der seitlichen Öffnung durch die Hochdruckzone des unteren Oesophagus Sphincter wird ein Peak registriert. Aus diesem Peak wird der Druck in mm Hg bestimmt.
Auf diese Weise wird zunächst als Kontrollwert der basale Druck des Oesophagus Sphincter bestimmt. Anschließend wird die Testsubstanz oral appliziert und nach 15 min. wird der Druck am unteren Oesophagus Sphincter in 2-Minuten-Intervallen über einen Zeitraum von 60 min. gemessen. Die Steigerung des Druckes nach Testsubstanzgabe im Vergleich zu dem vorbestimmten basalen Druck wird berechnet.
In diesem Test nahm der basale Tonus des Oesophagus Sphincter durch eine Dosis von 2,15 µMol/kg der Substanz des Beispiels 1 um 143 % zu. Dieser Effekt hielt während der gesamten Testdauer von 60 min. an.

T1 sequence (G1T803 1-400): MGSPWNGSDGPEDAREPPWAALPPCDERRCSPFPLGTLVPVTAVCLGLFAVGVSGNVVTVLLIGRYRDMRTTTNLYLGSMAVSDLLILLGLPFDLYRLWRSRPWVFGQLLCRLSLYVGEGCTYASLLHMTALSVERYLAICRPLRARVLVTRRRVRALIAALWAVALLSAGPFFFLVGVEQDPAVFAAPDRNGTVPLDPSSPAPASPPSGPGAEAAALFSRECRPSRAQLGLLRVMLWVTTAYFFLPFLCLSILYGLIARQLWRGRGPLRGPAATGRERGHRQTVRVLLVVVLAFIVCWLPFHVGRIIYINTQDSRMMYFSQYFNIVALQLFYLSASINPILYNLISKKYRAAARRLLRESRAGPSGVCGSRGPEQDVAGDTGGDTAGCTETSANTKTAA

Compound | IC50 (Motilin-Rezeptoren) [nM] | Reduktion des nach Lipidgabe vergrößerten Magenvolumens ([1]; Beagle dogs, 2,15 µmol/kg i.d., constant pressure) | Reduktion des Magenvolumens (Lipid-induzierte Relaxierung des Magenvolumens) ([1]; Beagle dogs, 2,15 µmol/kg oral) | Duration of the effect on the tone of the Oesophagus Sphincter ([2]; 2,15 µMol/kg oral, effect lasted for the whole test duration) [min] | Zunahme des basalen Tonus des Oesophagus Sphincter ([2]; conscious fasted male Beagle dogs, 2,15 µMol/kg oral, versus basal pressure) [%]
CO[C@]1(C)C[C@H](O[C@H]2[C@H](C)[C@@H](O[C@@H]3O[C@H](C)C[C@H](N(C)C(C)C)[C@H]3O)[C@@]3(C)CC(C)=C(O3)[C@H](C)[C@H](C(C)=O)OC(=O)[C@@H]2C)O[C@@H](C)[C@@H]1O [Beispiel 1, (2R,3S,4S,5R,6R,10R,11R]-3-[(2,6-Didesoxy-3-C-methyl-3-O-methyl-α-L-ribohexopyranosyl)-oxy]-5-[(3,4,6-tridesoxy-3-(N-methyl-N-isopropylamino)-β-D-xylohexopyranosyl)-oxy]-2,4,6,8,10-pentamethyl-11-acetyl-12,13-dioxabicyclo[8.2.1]-tridec-8-en-1-on] | 9.77 | 59,5% | praktisch völlig verhindert | ≥ 60 | 143
CO[C@]1(C)C[C@H](O[C@H]2[C@H](C)[C@@H](O[C@@H]3O[C@H](C)C[C@H](N(C)C(C)C)[C@H]3OC(C)=O)[C@@]3(C)CC(C)=C(O3)[C@H](C)[C@H](C(C)=O)OC(=O)[C@@H]2C)O[C@@H](C)[C@@H]1O [Beispiel 2, (2R,3S,4S,5R,6R,10R,11R)-3-[(2,6-Didesoxy-3-C-methyl-3-O-methyl-α-L-ribohexopyranosyl)-oxy]-5-[(3,4,6-tridesoxy-2-O-acetyl-3-(N-methyl-N-isopropylamino)-β-D-xylohexopyranosyl)-oxy]-2,4,6,8,10-pentamethyl-11-acetyl-12,13-dioxabicyclo-[8.2.1]tridec-8-en-1-on] | 17.8 | – | – | – | –
